Laboratory results published in PubChem BioAssay (NCI).
Where “and” joins values, the source holds several entries; their conditions need not be identical. Equal values may be shown once.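 Values below derive from 48-hour exposures of cells grown in 96-well plates, with endpoints linearly interpolated between the two concentrations bracketing the appropriate inhibition level. Here, GI50 denotes the concentration required for 50% inhibition of growth. TGI denotes the concentration required for complete inhibition of growth.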

Tests used:
Test in all cases: DTP human tumour cell line panel, 48 h
786-0 renal = system: 786-0 renal
CAKI-1 renal = system: CAKI-1 renal
CCRF-CEM leukemia = system: CCRF-CEM leukemia
HCT-116 colon = system: HCT-116 colon
HOP-92 NSCLC = system: HOP-92 NSCLC
HT29 colon = system: HT29 colon
KM12 colon = system: KM12 colon
NCI-H460 lung = system: NCI-H460 lung
OVCAR-3 ovarian = system: OVCAR-3 ovarian
U251 CNS = system: U251 CNS

SMILES	GI50 (786-0 renal) [µM]	TGI (786-0 renal)	GI50 (CAKI-1 renal)	TGI (CAKI-1 renal)	GI50 (CCRF-CEM leukemia) [µM]	TGI (CCRF-CEM leukemia) [µM]	GI50 (HCT-116 colon) [µM]	TGI (HCT-116 colon) [µM]	GI50 (HOP-92 NSCLC)	TGI (HOP-92 NSCLC)	GI50 (HT29 colon)	TGI (HT29 colon) [µM]	GI50 (KM12 colon) [µM]	TGI (KM12 colon) [µM]	GI50 (NCI-H460 lung) [µM]	TGI (NCI-H460 lung)	GI50 (OVCAR-3 ovarian)	TGI (OVCAR-3 ovarian)	GI50 (U251 CNS) [µM]	TGI (U251 CNS)
COc1ccc(-c2cn[nH]c2-c2cc(OC)c3c(c2)OCCO3)cc1	0.369	26.8 µM	0.143 µM	58.4 µM	0.298	> 73.9	0.0708	13.9	1.04 µM	28.1 µM	0.0421 µM	11.2	0.0502	7.85	0.0686	11.4 µM	0.0423 µM	0.3 µM	0.159	12.2 µM
O=C1CCCN1CC#CCN1CCCC1	> 100	> 100 µM	> 100 µM	> 100 µM	> 100	> 100	> 100	> 100	> 100 µM	> 100 µM	> 100 µM	> 100	> 100	> 100	> 100	> 100 µM	> 100 µM	> 100 µM	> 100	> 100 µM
C=C(C=O)CCCC(C)[C@@H]1CCC23CC12CCC1[C@@]2(C)CCC(OC(C)=O)C(C)(C)C2CC(OC2OC(COC(C)=O)C(O)C(O)C2O)[C@]13C (some centres not stated)		13.2 µM		10.9 µM		5		1.43		12.4 µM		11.9		9.53		16.1 µM		8.21 µM		8.56 µM
CC(=O)Nc1ccc(S(=O)(=O)NNC(=O)c2cccnc2Nc2ccc(Cl)cc2)cc1	48	> 100 µM	9.18 µM	> 100 µM	21.3	> 100	7.22	> 100	> 100 µM	> 100 µM	4 µM	> 100	4.19	> 100	4.69	> 100 µM	3.73 µM	> 100 µM	23.8	> 100 µM
O=C1CCC(O)=C1O		> 100 µM		> 100 µM		> 100		> 100		> 100 µM		> 100		> 100		> 100 µM		> 100 µM		> 100 µM
CCOc1ccccc1NC(=O)CCc1nc(=S)[nH][nH]1		> 100 µM		> 100 µM		> 100		> 100		> 100 µM		> 100		> 100		> 100 µM		> 100 µM		> 100 µM
COC(=O)c1c(-c2ccccc2)sc(-c2cccc3ccccc23)c1C(=O)OC		> 100 µM		> 100 µM		> 100		> 100		> 100 µM		> 100		> 100		> 100 µM		> 100 µM		> 100 µM
C=C=C(C(=O)OC)S(=O)c1ccc([N+](=O)[O-])cc1[N+](=O)[O-] (configuration not stated)		> 66.6 µM		63.1 µM		32.5		50.3		66.7 µM		52.9		> 72		> 91.2 µM		63.1 µM		62.7 µM
COc1cc(Cn2c(-c3nonc3N)nc3ccccc32)ccc1C	0.55	23.6 µM	0.477 µM	> 100 µM	0.403	> 100	0.46	> 100	0.566 µM	30 µM	0.358 µM	7.3	0.468	> 100	0.377	> 100 µM	0.328 µM	0.906 µM	0.501	15.6 µM
CCOc1c(Cl)cc(CNC(C)C(O)c2ccccc2)cc1OC (configuration not stated)	16.1	38.9 µM	15.1 µM	54.7 µM	35.6	> 100	19.2	43.1	12.9 µM	48.5 µM	18.6 µM	45.5	22.5	49.2	18.3	35.9 µM	40.1 µM	> 100 µM	19.5	46.1 µM
Nc1ccc(S(=O)(=O)NCc2nccs2)cc1		77.3 µM		84.6 µM		38.2		40.8		41.4 µM		31.3		45		> 100 µM		> 100 µM		47.5 µM
CN[C@@H]1C[C@H]2O[C@@](C)([C@@H]1OC)n1c3ccccc3c3c4c(c5c6ccccc6n2c5c31)C(=O)N[C@@H]4O		0.172 µM		0.0229 µM		1.39		2.42	< 0.0205 µM		0.0475 µM		0.0185			0.3 µM and 1.47 µM		0.3 µM and 0.722 µM		0.3 µM and 0.333 µM
CC[C@@]1(O)C(=O)OCc2c1cc1n(c2=O)Cc2cc3cc(N)ccc3nc2-1	0.0119	0.208 µM and 0.027 µM	0.00361 µM and 0.026 µM	1.62 µM and 1.21 µM	0.1			1.65	0.0132 µM and < 0.025 µM	0.773 µM and 0.247 µM	0.0176 µM and 0.0225 µM		0.232	2.9	0.00149	0.212 µM	0.0847 µM and 0.0653 µM	0.608 µM and 0.346 µM	0.0013	0.134 µM
CCOC(=O)CC1NC(=O)CS1 (configuration not stated)		> 100 µM		> 100 µM		> 100		61.7		> 100 µM		> 100		> 100		> 100 µM		> 100 µM		> 100 µM
